Reference: US20260015350A1, “AZAQUINAZOLINE PAN-KRAS INHIBITORS” (Mirati Therapeutics, Inc., priority 2022, published 2026)

Assays:
KRas^G12V = biological target: T1, KRas^G12V (Homo sapiens, UniProt P01116, G12V); test: KRas binding assay (TR-FRET tracer displacement), KRas G12V
T1 construct: Biotinylated KRas (corresponding to amino acids 1-169, produced at Accelegan Inc.); biotin (biotinylated); purchased Accelegan Inc

KRas^G12R = biological target: T2, KRas^G12R (Homo sapiens, UniProt P01116, G12R); test: KRas binding assay (TR-FRET tracer displacement), KRas G12R
T2 construct: Biotinylated KRas (corresponding to amino acids 1-169, produced at Accelegan Inc.); biotin (biotinylated); purchased Accelegan Inc

[1] = test system: KRas-mediated phosphorylation of ERK in PSN1 cells; test: Inhibition of KRas-mediated phosphorylation of ERK (Cisbio HTRF pERK), PSN1 cells; assay type: cell-based; conditions: Homo sapiens
Protocol: (§1) Inhibition of KRas Phosphorylation of ERK (HTRF) by Exemplary Compounds of Formula (I)
(§2) Cisbio HTRF Advanced PERK Assay Catalog #64AERPEH
(§3) Day 1: Seed 6,000 cells/well-25 μl/well in 384-well white solid bottom plate; RPM1_10% FBS. Incubate overnight at 37° C./5% CO2.
(§4) Incubate for 4 hours at room temperature covered.
(§5) Read HTRF using ClarioStar

KRas^G12D = biological target: T3, KRas^G12D (Homo sapiens, UniProt P01116, G12D); test: KRas binding assay (TR-FRET tracer displacement), KRas G12D
T3 construct: Biotinylated KRas (corresponding to amino acids 1-169, produced at Accelegan Inc.); biotin (biotinylated); purchased Accelegan Inc

[2] = test system: KRas-mediated phosphorylation of ERK in MKN1 cells; test: Inhibition of KRas-mediated phosphorylation of ERK (Cisbio HTRF pERK), MKN1 cells; assay type: cell-based; conditions: Homo sapiens, MKN-1
Protocol: as §1, §2, §3, §4, §5

[3] = test system: KRas-mediated phosphorylation of ERK in H727 cells; test: Inhibition of KRas-mediated phosphorylation of ERK (Cisbio HTRF pERK), H727 cells; assay type: cell-based; conditions: Homo sapiens, NCI-H727, H727 cells; HTRF pERK
In short: (§6)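 Phosphorylated ERK was quantified by HTRF using d2-conjugate and Cryptate antibodies added to lysates for 2 hrs at room temperature.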

[4] = test system: KRas-mediated phosphorylation of ERK in AsPC-1 cells; test: Inhibition of KRas-mediated phosphorylation of ERK (Cisbio HTRF pERK), AsPC-1 cells; assay type: cell-based; conditions: Homo sapiens, ASPC1, AsPC-1 cells; HTRF pERK
In short: as §6

[5] = test system: KRas-mediated phosphorylation of ERK in A549 cells; test: Inhibition of KRas-mediated phosphorylation of ERK (Cisbio HTRF pERK), A549 cells; assay type: cell-based; conditions: Homo sapiens, HTRF pERK
In short: (§7)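 Min control wells contained 0.2 uM Trametinib, while test compounds ran as 10 doses (3-fold, top 10 uM; 0.8% DMSO final) on cells for 3 hrs. After 40 mins lysis at 4° C, lysates were probed with HTRF antibodies for 2 hrs at room temperature.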

[6] = test system: KRas-mediated phosphorylation of ERK in H460 cells; test: Inhibition of KRas-mediated phosphorylation of ERK (Cisbio HTRF pERK), H460 cells; assay type: cell-based; conditions: Homo sapiens, NCI-H460, HTRF pERK
In short: as §6

[7] = test system: KRas-mediated phosphorylation of ERK in H358 cells; test: Inhibition of KRas-mediated phosphorylation of ERK (Cisbio HTRF pERK), H358 cells; assay type: cell-based; conditions: Homo sapiens, NCI-H358, HTRF pERK
In short: as §6

[8] = test system: KRas-mediated phosphorylation of ERK in HCT116 cells; test: Inhibition of KRas-mediated phosphorylation of ERK (Cisbio HTRF pERK), HCT116 cells; assay type: cell-based; conditions: Homo sapiens, HCT-116, HTRF pERK
In short: as §7

T1 sequence (P01116 1-169 isoform P01116-2 G12V): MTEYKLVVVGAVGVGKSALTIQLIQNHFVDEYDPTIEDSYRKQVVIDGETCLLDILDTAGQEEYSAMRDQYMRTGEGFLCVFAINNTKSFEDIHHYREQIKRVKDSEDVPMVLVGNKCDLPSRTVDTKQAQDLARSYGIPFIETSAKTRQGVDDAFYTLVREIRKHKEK
T3 sequence (P01116 1-169 isoform P01116-2 G12D): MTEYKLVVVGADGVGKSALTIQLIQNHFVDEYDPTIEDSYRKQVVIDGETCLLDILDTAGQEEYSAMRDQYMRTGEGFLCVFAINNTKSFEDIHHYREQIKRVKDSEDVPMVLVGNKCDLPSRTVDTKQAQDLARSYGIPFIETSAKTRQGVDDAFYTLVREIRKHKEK
T2 sequence (P01116 1-169 isoform P01116-2 G12R): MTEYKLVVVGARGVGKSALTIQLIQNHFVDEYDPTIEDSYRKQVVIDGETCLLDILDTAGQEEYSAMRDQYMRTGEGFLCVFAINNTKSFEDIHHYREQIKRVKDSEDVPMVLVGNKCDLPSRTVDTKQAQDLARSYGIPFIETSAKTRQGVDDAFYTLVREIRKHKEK

Compound	IC50 (KRas^G12V)	IC50 (KRas^G12R)	IC50 [1]	IC50 (KRas^G12D)	IC50 [2]	IC50 [3]	IC50 [4]	IC50 [5]	IC50 [6]	IC50 [7]	IC50 [8]
CCc1c(F)ccc2cc(O)cc(-c3ncc4c(N5C[C@H]6C[C@@H](C5)[C@H](O)[C@H]6O)nc(OC[C@@]56CCCN5C[C@H](F)C6)nc4c3F)c12 (single isomer, unassigned) [Example 569]	< 2 nM	< 2 nM	> 10000 nM	5 nM	69 nM	444 nM	5110 nM				
CCc1c(F)ccc2cc(O)cc(-c3ncc4c(N5CCC[C@@]6(CC[S@+]([O-])C6)C5)nc(OC[C@@]56CCCN5C[C@H](F)C6)nc4c3F)c12 (single isomer, unassigned) [Example 624]	17 nM	41 nM	> 10000 nM	19 nM	834 nM	3990 nM	4030 nM				
CCc1c(F)ccc2cc(O)cc(-c3ncc4c(N5CCC[C@]6(CC[S@+]([O-])C6)C5)nc(OC[C@@]56CCCN5C[C@H](F)C6)nc4c3F)c12 (single isomer, unassigned) [Example 625]	10 nM	17 nM	> 10000 nM	21 nM	195 nM	2850 nM	4740 nM				
CCc1c(F)ccc2cc(O)cc(-c3ncc4c(N5CCCn6cnnc6C5)nc(OC[C@@]56CCCN5C[C@H](F)C6)nc4c3F)c12 [Example 563, 4-(4-(6,7-dihydro-5H-[1,2,4]triazolo[4,3-a][1,4]diazepin-8 (9H)-yl)-8-fluoro-2-(((2R,7aS)-2-fluorotetrahydro-1H-pyrrolizin-7a(5H)-yl)methoxy)pyrido[4,3-d]pyrimidin-7-yl)-5-ethyl-6-fluoronaphthalen-2-ol]	100 nM	238 nM	> 10000 nM	85 nM	> 10000 nM	> 10000 nM	> 10000 nM				
CCc1c(F)ccc2cc(O)cc(-c3ncc4c(NCC5CC(CO)NC5=O)nc(OC[C@@]56CCCN5C[C@H](F)C6)nc4c3F)c12 (stereo partly drawn) [Example 575, 3-(((7-(8-ethyl-7-fluoro-3-hydroxynaphthalen-1-yl)-8-fluoro-2-(((2R,7aS)-2-fluorotetrahydro-1H-pyrrolizin-7a(5H)-yl)methoxy)pyrido[4,3-d]pyrimidin-4-yl)amino)methyl)-5-(hydroxymethyl)pyrrolidin-2-one]	7 nM	27 nM	> 10000 nM	25 nM	417 nM	> 10000 nM	> 10000 nM				
CCc1c(F)ccc2cc(O)cc(-c3ncc4c(N5CCCS(=O)(=O)CC5)nc(OC[C@@]56CCCN5C[C@H](F)C6)nc4c3F)c12 [Example 583, 4-(7-(8-ethyl-7-fluoro-3-hydroxynaphthalen-1-yl)-8-fluoro-2-(((2R,7aS)-2-fluorohexahydro-1H-pyrrolizin-7a-yl)methoxy)pyrido[4,3-d]pyrimidin-4-yl)-1,4-thiazepane 1,1-dioxide]	14 nM	3 nM	> 10000 nM	33 nM	312 nM	2500 nM	5380 nM				
C[C@@]1(O)CCCN(c2nc(OC[C@@]34CCCN3C[C@H](F)C4)nc3c(F)c(-c4cc(O)cc5ccccc45)ncc23)C1 [Example 917, (R)-1-(8-fluoro-2-(((2R,7aS)-2-fluorotetrahydro-1H-pyrrolizin-7a(5H)-yl)methoxy)-7-(3-hydroxynaphthalen-1-yl)pyrido[4,3-d]pyrimidin-4-yl)-3-methylpiperidin-3-ol]	7 nM	12 nM		4 nM		223 nM	149 nM	233 nM	198 nM	54 nM	151 nM

Second part, the compound after the results:

IC50 (KRas^G12V)	IC50 (KRas^G12R)	IC50 [1]	IC50 (KRas^G12D)	IC50 [2]	IC50 [3]	IC50 [4]	IC50 [5]	IC50 [6]	IC50 [7]	IC50 [8]	Compound
32 nM	27 nM	> 10000 nM	127 nM	1460 nM	814 nM	2500 nM					CCc1c(F)ccc2cc(O)cc(-c3ncc4c(N5CC6CCCC(C6)C5)nc(OC[C@@]56CCCN5C[C@H](F)C6)nc4c3F)c12 [Example 551, 4-(4-(3-azabicyclo[3.3.1]nonan-3-yl)-8-fluoro-2-(((2R,7aS)-2-fluorotetrahydro-1H-pyrrolizin-7a(5H)-yl)methoxy)pyrido[4,3-d]pyrimidin-7-yl)-5-ethyl-6-fluoronaphthalen-2-ol]
512 nM	2030 nM	> 10000 nM	2030 nM	4020 nM	> 10000 nM	> 10000 nM					CCc1c(F)ccc2cc(O)cc(-c3ncc4c(N5C[C@@H]6OCCN[C@@H]6C5)nc(OC[C@@]56CCCN5C[C@H](F)C6)nc4c3F)c12 [Example 555, 5-ethyl-6-fluoro-4-(8-fluoro-2-(((2R,7aS)-2-fluorotetrahydro-1H-pyrrolizin-7a(5H)-yl)methoxy)-4-(hexahydropyrrolo[3,4-b][1,4]oxazin-6 (2H)-yl)pyrido[4,3-d]pyrimidin-7-yl)naphthalen-2-ol]
81 nM	30 nM	> 10000 nM	296 nM	476 nM	> 10000 nM	> 10000 nM					CCc1c(F)ccc2cc(O)cc(-c3ncc4c(N5CCC(S(C)(=N)=O)C5)nc(OC[C@@]56CCCN5C[C@H](F)C6)nc4c3F)c12 (stereo partly drawn) [Example 580, 5-ethyl-6-fluoro-4-(8-fluoro-2-(((2R,7aS)-2-fluorohexahydro-1H-pyrrolizin-7a-yl)methoxy) 4-(3-(S-methylsulfonimidoyl)pyrrolidin-1-yl)pyrido[4,3-d]pyrimidin-7-yl)naphthalen-2-ol]
119 nM	281 nM	> 10000 nM	790 nM	> 10000 nM	> 10000 nM	> 10000 nM					CCc1c(F)ccc2cc(O)cc(-c3ncc4c(N5CCC6CNC(=O)NC6C5)nc(OC[C@@]56CCCN5C[C@H](F)C6)nc4c3F)c12 (stereo partly drawn) [Example 592, 7-(7-(8-ethyl-7-fluoro-3-hydroxynaphthalen-1-yl)-8-fluoro-2-(((2R,7aS)-2-fluorohexahydro-1H-pyrrolizin-7a-yl)methoxy)pyrido[4,3-d]pyrimidin-4-yl)octahydropyrido[3,4-d]pyrimidin-2(1H)-one]
34 nM	37 nM		17 nM		> 10000 nM	> 10000 nM	> 10000 nM	> 10000 nM	> 10000 nM	> 10000 nM	CCc1c(F)ccc2cc(O)cc(-c3ncc4c(N5CC6CNC(CO)C6C5)nc(OC[C@@]56CCCN5C[C@H](F)C6)nc4c3F)c12 (stereo partly drawn) [Example 875, 5-ethyl-6-fluoro-4-(8-fluoro-2-(((2R,7aS)-2-fluorotetrahydro-1H-pyrrolizin-7a(5H)-yl)methoxy)-4-(4-(hydroxymethyl)hexahydropyrrolo[3,4-c]pyrrol-2 (1H)-yl)pyrido[4,3-d]pyrimidin-7-yl)naphthalen-2-ol]
240 nM	66 nM		692 nM		4410 nM	5370 nM	3530 nM	1290 nM	1410 nM	6690 nM	CCOC(=O)C12CCC(CN(c3nc(OC[C@@]45CCCN4C[C@H](F)C5)nc4c(F)c(-c5cc(O)cc6ccc(F)c(CC)c56)ncc34)C1)C2(F)F (stereo partly drawn) [Example 899, ethyl 3-(7-(8-ethyl-7-fluoro-3-hydroxynaphthalen-1-yl)-8-fluoro-2-(((2R,7aS)-2-fluorotetrahydro-1H-pyrrolizin-7a(5H)-yl)methoxy)pyrido[4,3-d]pyrimidin-4-yl)-8,8-difluoro-3-azabicyclo[3.2.1]octane-1-carboxylate]
6 nM	8 nM		14 nM		2310 nM	5800 nM	1630 nM	630 nM	707 nM	1730 nM	CCc1c(F)ccc2cc(O)cc(-c3ncc4c(N5CC6CCC(CC(N)=O)(C6)C5)nc(OC[C@@]56CCCN5C[C@H](F)C6)nc4c3F)c12 (stereo partly drawn) [Example 908, 2-(3-(7-(8-ethyl-7-fluoro-3-hydroxynaphthalen-1-yl)-8-fluoro-2-(((2R,7aS)-2-fluorotetrahydro-1H-pyrrolizin-7a(5H)-yl)methoxy)pyrido[4,3-d]pyrimidin-4-yl)-3-azabicyclo[3.2.1]octan-1-yl)acetamide]
